From BindingDB's records for doi:10.1021/jm000320t (Gsk, 2001)

Columns and labels:
Assay in all cases: In Vitro Enzyme Inhibition Assay
Procathepsin L = Procathepsin L (Homo sapiens, UniProt P07711)
Method: (§1) Assays were carried out in the presence of variable concentrations of test compound. Reactions were initiated by addition of enzyme to buffered solutions of inhibitor and substrate. Product fluorescence (excitation at 360 nm, emission at 460 nm) was monitored with a fluorescent plate reader.

Cathepsin K = target: T1, Cathepsin K (Homo sapiens, UniProt P43235); details: pH 5.5; 22 °C
T1 sequence (P43235 whole entry): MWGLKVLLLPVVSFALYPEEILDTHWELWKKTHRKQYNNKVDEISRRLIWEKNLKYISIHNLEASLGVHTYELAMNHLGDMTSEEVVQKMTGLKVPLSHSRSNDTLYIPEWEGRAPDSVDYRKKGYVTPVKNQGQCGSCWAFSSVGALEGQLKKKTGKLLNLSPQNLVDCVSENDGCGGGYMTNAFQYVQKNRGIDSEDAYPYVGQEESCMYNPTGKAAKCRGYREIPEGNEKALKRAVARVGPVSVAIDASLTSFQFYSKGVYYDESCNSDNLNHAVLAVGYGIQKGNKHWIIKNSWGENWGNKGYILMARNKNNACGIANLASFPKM
Method: as §1

Cathepsin S = Cathepsin S (Homo sapiens, UniProt P25774)
Method: as §1

Cathepsin S, sequence (P25774 whole entry): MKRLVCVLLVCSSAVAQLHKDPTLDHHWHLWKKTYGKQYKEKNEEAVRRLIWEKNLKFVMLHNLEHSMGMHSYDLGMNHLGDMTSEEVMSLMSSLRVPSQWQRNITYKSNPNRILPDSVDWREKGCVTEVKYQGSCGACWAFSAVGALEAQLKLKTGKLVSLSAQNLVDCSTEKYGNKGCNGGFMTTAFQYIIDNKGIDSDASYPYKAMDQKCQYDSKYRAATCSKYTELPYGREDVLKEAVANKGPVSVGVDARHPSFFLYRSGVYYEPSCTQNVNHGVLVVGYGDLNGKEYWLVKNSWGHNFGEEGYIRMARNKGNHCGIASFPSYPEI
Procathepsin L, sequence (P07711 whole entry): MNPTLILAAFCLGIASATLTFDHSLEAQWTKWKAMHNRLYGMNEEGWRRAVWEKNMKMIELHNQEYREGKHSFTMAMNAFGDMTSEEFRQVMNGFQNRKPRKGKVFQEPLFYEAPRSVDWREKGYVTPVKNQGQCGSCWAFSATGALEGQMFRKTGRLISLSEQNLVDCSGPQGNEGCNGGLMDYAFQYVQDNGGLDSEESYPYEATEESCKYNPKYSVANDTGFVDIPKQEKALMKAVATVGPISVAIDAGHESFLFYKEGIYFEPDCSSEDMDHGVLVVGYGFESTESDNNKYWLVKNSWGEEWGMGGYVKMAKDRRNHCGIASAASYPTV

Ki (Procathepsin L): 0.4 µM
Ki (Cathepsin K): 0.077 µM
Ki (Cathepsin S): 0.29 µM
SMILES: CN[C@@H](CC(C)C)C(=O)N1CC(=O)C(NC(=O)[C@H](CC(C)C)NC(=O)OCc2ccccc2)C1 (stereo partly drawn) [[(2S)-1-{3-[(2S)-2-{[(benzyloxy)carbonyl]amino}-4-methylpentanamido]-4-oxopyrrolidin-1-yl}-4-methyl-1-oxopentan-2-yl](methyl)azanium chloride]
